# Reference: ChEMBL document CHEMBL4507297, “Data for DCP probe PF-04457845” (2021)
# Tests used:
# [1] = biological target: 5-hydroxytryptamine receptor 1A (Homo sapiens) (UniProt P08908); test: 5-HT1A (h) CEREP ligand profiling; conditions: Compound concentration 10.0 uM
# [2] = CI channel CEREP ligand profiling
# [3] = biological target: T1, Muscarinic acetylcholine receptor M1 (Homo sapiens) (UniProt P11229); test: M1 (h) CEREP ligand profiling; conditions: Compound concentration 10.0 uM
# T1 sequence (whole entry): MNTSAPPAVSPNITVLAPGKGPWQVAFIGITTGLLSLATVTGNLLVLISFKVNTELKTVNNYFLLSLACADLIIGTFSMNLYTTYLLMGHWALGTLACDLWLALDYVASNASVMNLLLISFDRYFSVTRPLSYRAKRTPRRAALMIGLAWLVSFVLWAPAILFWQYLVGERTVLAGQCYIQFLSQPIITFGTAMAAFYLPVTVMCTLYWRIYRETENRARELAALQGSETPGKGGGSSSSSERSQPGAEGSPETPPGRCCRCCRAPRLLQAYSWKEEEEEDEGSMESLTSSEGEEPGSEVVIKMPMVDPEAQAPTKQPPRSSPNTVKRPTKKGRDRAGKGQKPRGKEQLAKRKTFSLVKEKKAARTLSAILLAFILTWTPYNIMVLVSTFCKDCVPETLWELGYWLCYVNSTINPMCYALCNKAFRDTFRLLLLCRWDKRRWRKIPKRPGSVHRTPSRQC
# [4] = biological target: Vascular endothelial growth factor receptor 1 (Homo sapiens) (UniProt P17948); test: FLT-1 (h) (VEGFR1) CEREP ligand profiling; conditions: Compound concentration 10.0 uM
# [5] = biological target: T2, 5-hydroxytryptamine receptor 2B (Homo sapiens, UniProt P41595); test: GPCRScan assay: inhibition of 5-HT2B; parameters: radioligand conc. used [nm] 1.0 – 2.0, parental cells stable HEK
# [6] = biological target: Beta-1 adrenergic receptor (Homo sapiens) (UniProt P08588); test: beta1 (h) CEREP ligand profiling; conditions: Compound concentration 10.0 uM
# [7] = biological target: Alpha-1D adrenergic receptor (Homo sapiens) (UniProt P25100); conditions: Compound concentration 10.0 uM
# [8] = biological target: D(3) dopamine receptor (Homo sapiens) (UniProt P35462); test: D3 (h) CEREP ligand profiling; conditions: Compound concentration 10.0 uM
# [9] = biological target: Voltage-dependent N-type calcium channel subunit alpha-1B (Homo sapiens) (UniProt Q00975); test: Ca2+ channel (N) CEREP ligand profiling; conditions: Compound concentration 10.0 uM
# [10] = biological target: Sodium-dependent serotonin transporter (Homo sapiens) (UniProt P31645); test: 5-HT transporter (h) CEREP ligand profiling; conditions: Compound concentration 10.0 uM
# [11] = GPCRScan assay: inhibition of GABA/PBR; parameters: species or system Rattus norvegicus; radioligand conc. used [nm] 0.3 – 2.0, parental cells brain tissue
# [12] = biological target: Gastrin/cholecystokinin type B receptor (Homo sapiens) (UniProt P32239); test: CCKB (h) (CCK2) CEREP ligand profiling; conditions: Compound concentration 10.0 uM
# [13] = biological target: Muscarinic acetylcholine receptor M3 (Homo sapiens) (UniProt P20309); test: M3 (h) CEREP ligand profiling; conditions: Compound concentration 10.0 uM
# [14] = biological target: Delta-type opioid receptor (Homo sapiens) (UniProt P41143); conditions: Compound concentration 10.0 uM
# [15] = biological target: 5-hydroxytryptamine receptor 1B (Homo sapiens) (UniProt P28222); test: 5-HT1B CEREP ligand profiling; conditions: Compound concentration 10.0 uM
# [16] = biological target: High affinity choline transporter 1 (Homo sapiens) (UniProt Q9GZV3); test: Choline transporter (h) (CHT1) CEREP ligand profiling; conditions: Compound concentration 10.0 uM
# [17] = biological target: Ca2+ channel (L, DHP site); voltage-gated L-type calcium channel (Homo sapiens, UniProt O60840+Q01668+Q13698+Q13936); test: Ca2+ channel (L, DHP site) CEREP ligand profiling; format: protein assay; conditions: compound concentration 10 uM
# [18] = biological target: Alpha-2C adrenergic receptor (Homo sapiens, UniProt P18825); test: GPCRScan assay: inhibition of Alpha2C; parameters: radioligand conc. used [nm] 0.5 – 1.0, parental cells stable MDCK
# [19] = biological target: Delta-type opioid receptor (Homo sapiens) (UniProt P41143); test: delta2 (h) (DOP) CEREP ligand profiling; conditions: Compound concentration 10.0 uM
# [20] = biological target: Histamine H2 receptor (Homo sapiens) (UniProt P25021); test: H2 (h) CEREP ligand profiling; conditions: Compound concentration 10.0 uM
# [21] = biological target: Alpha-2B adrenergic receptor (Homo sapiens) (UniProt P18089); test: alpha2B (h) CEREP ligand profiling; conditions: Compound concentration 10.0 uM
# [22] = biological target: Glutamate receptor ionotropic, AMPA (Rattus norvegicus) (UniProt P19491+P19492+P19493+P19490); test: AMPA CEREP ligand profiling; format: protein-complex assay; conditions: Compound concentration 10.0 uM
# [23] = biological target: Kappa-type opioid receptor (Homo sapiens) (UniProt P41145); conditions: Compound concentration 10.0 uM
# [24] = biological target: 5-hydroxytryptamine receptor 2C (Homo sapiens, UniProt P28335); test: GPCRScan assay: inhibition of 5-HT2C; parameters: radioligand conc. used [nm] 1.0 – 2.5, parental cells HEK T
# [25] = biological target: T3, Muscarinic acetylcholine receptor M2 (Homo sapiens) (UniProt P08172); test: M2 (h) CEREP ligand profiling; conditions: Compound concentration 10.0 uM
# T3 sequence (whole entry): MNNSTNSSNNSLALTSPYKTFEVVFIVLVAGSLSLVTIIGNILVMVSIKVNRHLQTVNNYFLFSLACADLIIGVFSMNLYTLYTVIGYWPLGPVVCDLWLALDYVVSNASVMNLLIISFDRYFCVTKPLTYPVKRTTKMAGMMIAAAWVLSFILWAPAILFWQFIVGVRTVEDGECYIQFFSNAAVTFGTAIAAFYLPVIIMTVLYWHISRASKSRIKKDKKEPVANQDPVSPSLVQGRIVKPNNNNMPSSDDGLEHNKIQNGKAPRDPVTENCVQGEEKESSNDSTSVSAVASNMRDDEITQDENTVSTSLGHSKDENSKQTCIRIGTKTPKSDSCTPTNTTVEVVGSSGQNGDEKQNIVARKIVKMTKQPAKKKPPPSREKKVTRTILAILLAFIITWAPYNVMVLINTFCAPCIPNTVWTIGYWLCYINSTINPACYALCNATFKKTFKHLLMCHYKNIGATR
# [26] = biological target: Cyclin-dependent kinase 19 (Homo sapiens) (UniProt Q9BWU1); conditions: Compound concentration 1000.0 nM
# [27] = Glycine (strychnine-insensitive) CEREP ligand profiling; conditions: Compound concentration 10.0 uM
# [28] = biological target: Na+ channel (site 2); sodium channel alpha subunit (Homo sapiens, UniProt P35498+P35499+Q01118+Q14524+Q15858+Q99250+Q9NY46+Q9UI33+Q9UQD0+Q9Y5Y9); test: Na+ channel (site 2) CEREP ligand profiling; format: protein assay; conditions: compound concentration 10 uM
# [29] = biological target: Mu-type opioid receptor (Homo sapiens) (UniProt P35372); test: mu (h) (MOP) (agonist site) CEREP ligand profiling; conditions: Compound concentration 10.0 uM
# [30] = biological target: T2, 5-hydroxytryptamine receptor 2B; test: 5-HT2B (h) (agonist site) CEREP ligand profiling; conditions: Compound concentration 10.0 uM
# [31] = biological target: MAO-A (Amine oxidase [flavin-containing] A) (Homo sapiens, UniProt P21397); test: MAO-A CEREP ligand profiling; conditions: compound concentration 10 uM
# [32] = biological target: GABA-A receptor; anion channel (Rattus norvegicus) (UniProt O09028+P15431+P18506+P18508+P19969+P20236+P23574+P23576+P28471+P28473+P30191+P62813+P63079+P63138+Q91ZM7+Q9ES14); conditions: Compound concentration 10.0 uM
# Sequence of Cyclin-dependent kinase 19 (Homo sapiens) (Q9BWU1 whole entry): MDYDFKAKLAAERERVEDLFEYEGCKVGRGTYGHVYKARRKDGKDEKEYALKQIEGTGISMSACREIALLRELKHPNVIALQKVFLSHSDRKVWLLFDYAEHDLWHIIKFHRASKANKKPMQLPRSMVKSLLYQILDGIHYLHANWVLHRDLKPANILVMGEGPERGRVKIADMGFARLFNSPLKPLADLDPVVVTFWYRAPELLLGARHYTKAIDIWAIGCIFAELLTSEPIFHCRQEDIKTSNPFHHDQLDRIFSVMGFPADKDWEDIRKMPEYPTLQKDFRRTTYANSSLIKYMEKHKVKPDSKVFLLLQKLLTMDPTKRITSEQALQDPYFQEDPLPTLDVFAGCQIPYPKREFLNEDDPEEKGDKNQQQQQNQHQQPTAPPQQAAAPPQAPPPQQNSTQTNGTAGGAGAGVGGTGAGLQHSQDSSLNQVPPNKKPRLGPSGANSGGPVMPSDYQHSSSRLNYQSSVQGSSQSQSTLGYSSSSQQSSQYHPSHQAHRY
# Sequence of Delta-type opioid receptor (Homo sapiens) (P41143 whole entry): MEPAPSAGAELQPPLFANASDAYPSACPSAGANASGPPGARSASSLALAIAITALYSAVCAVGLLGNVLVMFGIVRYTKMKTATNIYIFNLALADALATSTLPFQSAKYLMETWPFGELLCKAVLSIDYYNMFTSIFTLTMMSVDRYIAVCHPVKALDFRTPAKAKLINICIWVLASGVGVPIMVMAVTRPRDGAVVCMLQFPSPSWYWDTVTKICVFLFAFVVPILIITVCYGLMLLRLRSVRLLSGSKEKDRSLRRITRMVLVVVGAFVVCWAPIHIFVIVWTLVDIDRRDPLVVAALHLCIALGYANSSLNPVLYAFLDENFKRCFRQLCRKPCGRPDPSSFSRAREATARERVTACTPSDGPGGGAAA
# T2 sequence (P41595 whole entry): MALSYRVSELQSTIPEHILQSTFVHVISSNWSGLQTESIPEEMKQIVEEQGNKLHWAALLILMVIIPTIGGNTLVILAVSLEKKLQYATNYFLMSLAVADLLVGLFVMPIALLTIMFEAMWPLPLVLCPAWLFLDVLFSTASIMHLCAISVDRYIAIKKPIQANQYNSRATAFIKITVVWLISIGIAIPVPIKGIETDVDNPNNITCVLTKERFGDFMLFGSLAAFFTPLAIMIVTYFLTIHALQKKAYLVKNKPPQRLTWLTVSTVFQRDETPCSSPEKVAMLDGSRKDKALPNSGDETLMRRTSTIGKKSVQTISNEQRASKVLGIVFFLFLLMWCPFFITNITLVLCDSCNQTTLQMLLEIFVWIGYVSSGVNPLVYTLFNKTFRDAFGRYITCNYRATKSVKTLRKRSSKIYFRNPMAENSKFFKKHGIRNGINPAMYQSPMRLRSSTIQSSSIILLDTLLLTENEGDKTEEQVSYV
# Sequence of 5-hydroxytryptamine receptor 1A (Homo sapiens) (P08908 whole entry): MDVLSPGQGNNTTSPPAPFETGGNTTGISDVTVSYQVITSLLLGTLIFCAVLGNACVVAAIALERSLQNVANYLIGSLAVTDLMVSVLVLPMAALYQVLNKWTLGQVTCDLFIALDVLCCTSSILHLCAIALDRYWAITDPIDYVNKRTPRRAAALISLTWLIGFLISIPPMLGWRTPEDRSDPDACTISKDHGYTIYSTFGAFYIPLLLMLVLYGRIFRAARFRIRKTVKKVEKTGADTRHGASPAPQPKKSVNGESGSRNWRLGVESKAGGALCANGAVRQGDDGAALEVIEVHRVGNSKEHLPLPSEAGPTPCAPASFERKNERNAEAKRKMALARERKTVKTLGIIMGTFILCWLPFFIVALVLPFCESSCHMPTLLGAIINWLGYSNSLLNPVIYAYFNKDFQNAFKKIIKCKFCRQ
# Sequence of 5-hydroxytryptamine receptor 1B (Homo sapiens) (P28222 whole entry): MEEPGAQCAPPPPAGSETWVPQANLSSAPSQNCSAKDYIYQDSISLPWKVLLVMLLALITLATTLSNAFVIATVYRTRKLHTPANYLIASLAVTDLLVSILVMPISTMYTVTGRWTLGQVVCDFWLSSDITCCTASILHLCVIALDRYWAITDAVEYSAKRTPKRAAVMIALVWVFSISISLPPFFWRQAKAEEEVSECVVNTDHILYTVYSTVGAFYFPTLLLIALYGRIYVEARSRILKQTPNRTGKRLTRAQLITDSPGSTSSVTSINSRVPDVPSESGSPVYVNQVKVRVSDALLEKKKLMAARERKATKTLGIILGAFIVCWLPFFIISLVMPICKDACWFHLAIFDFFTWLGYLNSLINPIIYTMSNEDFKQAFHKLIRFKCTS
# Sequence of Alpha-1D adrenergic receptor (Homo sapiens) (P25100 whole entry): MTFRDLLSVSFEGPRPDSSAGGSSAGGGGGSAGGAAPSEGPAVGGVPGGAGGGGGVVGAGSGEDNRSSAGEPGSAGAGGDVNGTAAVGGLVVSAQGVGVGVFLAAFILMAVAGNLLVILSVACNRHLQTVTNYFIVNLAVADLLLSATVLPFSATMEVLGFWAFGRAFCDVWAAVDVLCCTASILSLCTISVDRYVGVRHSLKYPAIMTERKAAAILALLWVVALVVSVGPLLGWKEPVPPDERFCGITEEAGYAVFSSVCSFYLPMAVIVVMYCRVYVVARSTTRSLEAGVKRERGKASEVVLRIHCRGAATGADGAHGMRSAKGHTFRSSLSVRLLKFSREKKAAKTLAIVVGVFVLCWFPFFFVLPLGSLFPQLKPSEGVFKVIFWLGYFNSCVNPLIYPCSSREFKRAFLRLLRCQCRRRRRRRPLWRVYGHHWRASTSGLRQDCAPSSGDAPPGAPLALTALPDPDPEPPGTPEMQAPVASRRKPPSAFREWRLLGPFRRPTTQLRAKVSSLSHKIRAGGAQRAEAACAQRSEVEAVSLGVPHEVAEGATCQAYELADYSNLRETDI
# Sequence of Voltage-dependent N-type calcium channel subunit alpha-1B (Homo sapiens) (Q00975 whole entry, looked up): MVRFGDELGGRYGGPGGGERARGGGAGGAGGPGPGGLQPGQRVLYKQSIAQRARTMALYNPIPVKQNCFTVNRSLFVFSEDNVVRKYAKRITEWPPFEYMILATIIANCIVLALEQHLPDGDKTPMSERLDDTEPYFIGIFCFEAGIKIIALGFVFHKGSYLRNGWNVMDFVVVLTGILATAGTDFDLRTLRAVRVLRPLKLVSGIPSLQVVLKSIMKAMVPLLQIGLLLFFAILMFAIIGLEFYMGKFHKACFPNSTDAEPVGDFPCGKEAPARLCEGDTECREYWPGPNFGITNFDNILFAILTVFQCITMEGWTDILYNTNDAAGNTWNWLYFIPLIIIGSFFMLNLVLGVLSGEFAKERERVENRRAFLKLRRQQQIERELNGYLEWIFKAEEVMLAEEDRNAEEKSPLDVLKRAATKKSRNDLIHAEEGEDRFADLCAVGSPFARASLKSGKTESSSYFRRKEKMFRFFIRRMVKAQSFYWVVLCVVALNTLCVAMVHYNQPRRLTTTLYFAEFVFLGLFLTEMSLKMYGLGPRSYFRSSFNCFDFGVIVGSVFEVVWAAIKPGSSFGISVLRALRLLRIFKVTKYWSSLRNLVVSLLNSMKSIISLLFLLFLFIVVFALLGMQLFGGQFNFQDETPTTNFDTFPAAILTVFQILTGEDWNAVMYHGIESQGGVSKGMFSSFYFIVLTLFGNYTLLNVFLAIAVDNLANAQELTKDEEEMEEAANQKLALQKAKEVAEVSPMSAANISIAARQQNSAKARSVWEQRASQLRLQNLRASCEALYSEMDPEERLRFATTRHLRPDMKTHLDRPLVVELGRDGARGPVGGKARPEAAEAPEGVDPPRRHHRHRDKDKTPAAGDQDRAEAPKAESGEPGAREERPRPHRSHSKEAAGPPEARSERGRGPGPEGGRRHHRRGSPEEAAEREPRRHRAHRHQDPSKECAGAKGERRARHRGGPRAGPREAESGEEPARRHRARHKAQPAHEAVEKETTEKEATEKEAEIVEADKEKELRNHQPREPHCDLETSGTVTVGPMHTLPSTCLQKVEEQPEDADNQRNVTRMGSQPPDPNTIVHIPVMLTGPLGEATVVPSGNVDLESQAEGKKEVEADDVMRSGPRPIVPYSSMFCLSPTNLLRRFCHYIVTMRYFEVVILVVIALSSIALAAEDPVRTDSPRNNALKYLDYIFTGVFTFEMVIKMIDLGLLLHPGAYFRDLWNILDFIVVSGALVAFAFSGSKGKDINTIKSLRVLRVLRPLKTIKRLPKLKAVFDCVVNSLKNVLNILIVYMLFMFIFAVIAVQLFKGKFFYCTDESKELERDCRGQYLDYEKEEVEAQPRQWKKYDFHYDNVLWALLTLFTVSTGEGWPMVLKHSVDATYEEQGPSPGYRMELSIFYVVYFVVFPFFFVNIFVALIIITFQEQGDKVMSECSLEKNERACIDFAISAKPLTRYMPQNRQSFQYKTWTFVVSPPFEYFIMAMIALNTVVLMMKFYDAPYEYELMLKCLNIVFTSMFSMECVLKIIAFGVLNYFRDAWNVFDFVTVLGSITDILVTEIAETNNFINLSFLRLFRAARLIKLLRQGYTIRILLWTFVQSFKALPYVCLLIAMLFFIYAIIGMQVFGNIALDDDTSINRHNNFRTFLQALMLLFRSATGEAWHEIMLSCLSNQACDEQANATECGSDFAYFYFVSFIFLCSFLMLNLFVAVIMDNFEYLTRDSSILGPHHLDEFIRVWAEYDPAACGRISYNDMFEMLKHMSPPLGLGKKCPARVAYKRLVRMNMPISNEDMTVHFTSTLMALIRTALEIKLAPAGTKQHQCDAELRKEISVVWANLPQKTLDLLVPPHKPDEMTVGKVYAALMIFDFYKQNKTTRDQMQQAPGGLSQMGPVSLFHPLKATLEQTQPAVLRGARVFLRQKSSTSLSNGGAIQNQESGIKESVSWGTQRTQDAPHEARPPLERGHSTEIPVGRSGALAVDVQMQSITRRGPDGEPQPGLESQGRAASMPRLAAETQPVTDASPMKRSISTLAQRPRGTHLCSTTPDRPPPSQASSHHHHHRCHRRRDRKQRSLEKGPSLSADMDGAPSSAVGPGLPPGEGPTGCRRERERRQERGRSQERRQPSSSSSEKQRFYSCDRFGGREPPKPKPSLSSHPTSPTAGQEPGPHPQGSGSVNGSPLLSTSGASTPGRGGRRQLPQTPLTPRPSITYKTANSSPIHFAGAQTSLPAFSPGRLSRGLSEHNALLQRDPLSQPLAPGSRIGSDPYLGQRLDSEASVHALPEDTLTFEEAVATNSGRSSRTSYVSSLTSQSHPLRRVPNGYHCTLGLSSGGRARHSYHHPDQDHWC
compound,measurement,setting,value
O=C(Nc1cccnn1)N1CCC(=Cc2cccc(Oc3ccc(C(F)(F)F)cn3)c2)CC1,inhibition,[1],6%
same,Ki,[2],3 µM
same,inhibition,[2]; Compound concentration 10.0 uM,78%
same,inhibition,[3],36%
same,inhibition,[4],4%
same,Ki,[5],1.34 µM
same,inhibition,[6],1%
same,inhibition,[7],3.84%
same,inhibition,[8],3%
same,inhibition,[9],-5%
same,inhibition,[10],11%
same,Ki,[11],1.14 µM
same,pKi,[11],5.94
same,inhibition,[12],-6%
same,inhibition,[13],11%
same,inhibition,[14],12.3%
same,inhibition,[15],-3%
same,inhibition,[16],18%
same,inhibition at 10 µM,[17],11% (not active)
same,Ki,[18],0.596 µM
same,inhibition,[19],2%
same,inhibition,[20],-6%
same,inhibition,[21],4%
same,inhibition,[22],-8%
same,inhibition,[23],30.5%
same,Ki,[24],1.66 µM
same,inhibition,[25],15%
same,residual activity,[26],100%
same,inhibition,[27],-2%
same,inhibition at 10 µM,[28],13% (not active)
same,inhibition,[29],3%
same,inhibition,[30],35%
same,inhibition at 10 µM,[31],13% (not active)
O=C(Nc1cccnn1)N1CC(C/C=C/c2cncc(Oc3ccc(C(F)(F)F)cn3)n2)C1,residual activity,[26],84%
same,inhibition,[32],23.7%
